Assay results reported in patent US20260345624A1, “TREATMENT OF PROSTATE CANCER BY PROMOTING PDE4D7” (KONINKLIJKE PHILIPS N.V., priority 2022, published 2026).
“Also recorded” adds a separate entry of the source.

Legend:
LNCaP WT cells = test: xCELLigence real-time proliferation of WT LNCaP cells; format: cell-based; conditions: for proliferation of WT LNCaPs: PDE4 activator, 1 and 10 μM
Procedure: (§1) xCELLigence Real-Time Cell Analysis (RTCA)
(§2) Real-time cell growth was analysed using the xCELLigence RTCA system (Agilent), which measures real-time cell adhesion across gold microelectrode biosensors on 96 well electronic plates (E-plates) within a 37 °C incubator with 5% CO2. Cellular adhesion influences electrical impedance which is converted into the cell index (CI) via RTCA software. Initial background measurements were recorded with 100 μL RPMI 1640 medium, followed by addition of 100 μL LNCaP cell suspension (10,000 cells/wells) for measurement of CI over time. Approximately 24 h after seeding, cells were treated with specified concentrations of drugs. Negative controls containing either 0.1% DMSO or untreated cells were also included. CI was transformed to normalised CI via the RTCA software to timepoint of treatment.

[1] = tested on: PDE4D7-knockdown LNCaP P1 cells; test: xCELLigence real-time proliferation of PDE4D7-knockdown P1 LNCaP cells; format: cell-based; conditions: for resistance to olaparib, PDE4D7-reduced cells: olaparib 10 and 30 μM
Excerpt: Stable shRNA-mediated lentiviral transduced LNCaP cell lines were generated by AMSBIO (Table 1). Briefly, shRNA-PDE4D7 was cloned into a lentivector and delivered into LNCaP clone FGC cells (ATCC) via lentivirus (MOI=10). Cells were maintained in puromycin-supplemented medium prior to selection of stably transduced cells. A stable shRNA-PDE4D7 LNCaP cell line was then re-transduced with lentivirus delivering PDE4D7 to generate a re-introduced cell line. Scrambled-shRNA was used as a control. All cells were cultured in RPMI 1640 medium (Gibco D), supplemented with 10% (v/v) foetal bovine serum, 1% (v/v) L-Glutamine and 1% (v/v) penicillin/streptomycin, and stored within a 37 °C incubator with 5% CO2.
as §1, §2

P1-PDE4D7+/+ LNCaP cells = test: xCELLigence real-time proliferation of P1 LNCaP cells with PDE4D7 re-expression; format: cell-based
mCRPC = conditions: Lloyd et al., 2020; cited from earlier work
[2] = tested on: PARP cleavage in LNCaP WT; test: PARP/cleaved PARP western blot in WT LNCaP; format: cell-based; conditions: N=3
Procedure: (§3) FIG. 12: Ratio of PARP and cleaved PARP (PARPc) by western blot analysis in LNCaP WT and LNCaP PDE4D7 knockdown cell line P1 upon incubation with 0.1% DMSO (control), 10 μM Olaparib, and 10 nM docetaxel including quantitation of western blot bands normalised to DMSO.
(§4) Cells were lysed in 3T3 lysis buffer (50 mM NaCl, 50 mM NaF, 30 mM sodium pyrophosphate, 25 mM HEPES, 2.5 mM EDTA, 10% (v/v) glycerol, 1% (v/v) Triton X-100; pH 7.5) supplemented with cOmplete™ EDTA-free protease inhibitor cocktail (Sigma-Aldrich). Lysed cells were rotated end-over-end for 30 minutes at 4 °C, then centrifuged for 10 minutes at 13,000 RPM at […]. Supernatants were collected and protein concentration determined via Bradford assay. Equal concentrations of protein samples were separated via SDS-polyacrylamide gel electrophoresis (SDS-PAGE) and transferred onto nitrocellulose membranes for western blot. Membranes were blocked in 5% (w/v) milk powder in TBS-T for 1 h prior to primary and secondary antibody incubations. […]

[3] = tested on: PARP cleavage in LNCaP P1; test: PARP/cleaved PARP western blot in PDE4D7-knockdown P1 LNCaP; format: cell-based; conditions: N=3
Procedure: as §3, §4

advanced PCa = conditions: in combination with docetaxel; cited from earlier work
LNCaP cells = conditions: Feiersinger et al., 2018; cited from earlier work
[4] = tested on: cAMP at membrane of WT LNCaPs; test: cAMP FRET (CUTie) at plasma membrane of WT LNCaP; format: cell-based; conditions: rolipram
Procedure: (§5) FIG. 18: Influence of PDE4D7 expression on cAMP dynamics within LNCaPs. Analysis of FRET ratio (YFP/CFP) at cytosol of WT (A) or P1 (C) LNCaPs, or at membrane of WT (B) or P1 (D) LNCaPs upon treatment with rolipram or combined treatment of forskolin+IBMX. (E & F) Real-time growth analysis of WT (G) and P1 (H) cells upon treatment with PDE4 activator MR-L2 (1-10 μM). Slope analysis from 0-48 post-treatment. Mean+/−SEM, N=3, **p<0.01, ***p<0.001.
(§6) Genetically encoded cAMP-fluorescent resonance energy transfer (FRET) probes were used to investigate CAMP dynamics at subcellular regions in WT and P1 LNCaPs. […] CUTie probes targeting the plasma-membrane (AKAP-79) or cytosol (CYTO-pDUAL) were obtained from the Zaccolo lab (REF). […] Given that PDE4D7 is known to be substantially membrane located [FIG. 1C]

[5] = tested on: cAMP at membrane of P1 LNCaPs; test: cAMP FRET (CUTie) at plasma membrane of P1 LNCaP; format: cell-based; conditions: rolipram
Procedure: as §5, §6

[6] = tested on: cAMP at cytosol of WT LNCaPs; test: cAMP FRET (CUTie) in cytosol of WT LNCaP; format: cell-based; conditions: rolipram
Procedure: as §5, §6

[7] = tested on: cAMP at cytosol of P1 LNCaPs; test: cAMP FRET (CUTie) in cytosol of P1 LNCaP; format: cell-based; conditions: rolipram
Procedure: as §5, §6

In the case of `CCc1nc(-c2ccc(Cl)c(F)c2)nn1CC(=O)NCc1cc(Cl)cc(Cl)c1` [ML-R2], the “proliferation of WT LNCaPs” value (LNCaP WT cells) was “no effect on proliferation in WT LNCaPs at either concentration”, the “proliferation of WT LNCaPs” value (LNCaP WT cells; listed as MLR2) was “no effect on growth of WT LNCaPs” and the “proliferation of WT LNCaPs” value (LNCaP WT cells; listed as MR-L2) was “no effect on proliferation in WT LNCaPs”. For the same compound, the “growth of P1 cells” value ([1]; PDE4 activator, 1-10 μM) was “inhibition of cell growth in P1 cells”, the “growth of P1 cells” value ([1]; PDE4 activator, 1-10 μM, listed as MLR2) was “attenuates growth of P1 LNCaPs” and the “growth of P1 cells” value ([1]; PDE4 activator, 1-10 μM, listed as MR-L2) was “inhibition of growth in P1 cells”. For the same compound, the “MLR2 sensitivity after PDE4D7 reintroduction to P1” value (P1-PDE4D7+/+ LNCaP cells; PDE4 activator, 10 μM) was “rescues phenotype of WT LNCaPs on MLR2 sensitivity”.
With `C[C@@H]1COCCN1c1cc(C2([S@](C)(=N)=O)CC2)nc(-c2cc[nH]c3nccc2-3)n1` [ceralasertib, Ceralasertib] the “growth inhibition, WT” value (LNCaP WT cells; ceralasertib 10-30 μM) was “most significant growth inhibition”, the “growth inhibition independent of PDE4D7 expression, WT” value (LNCaP WT cells; summary statement, WT vs P1) was “reduce tumor growth independent of PDE4D7 expression levels; also recorded: inhibit LNCaP cell growth irrespective of PDE4D7 expression status” and the “sensitivity from growth curves, PDE4D7-knockdown (compared with WT)” value ([1]; ceralasertib 0-30 μM) was “highly susceptible to ATR-inhibition via ceralasertib”. The “growth inhibition, P1” value ([1]; ceralasertib 10-30 μM) was “most significant growth inhibition”, the “sensitivity of PDE4D7-knockdown cells” value ([1]; ceralasertib 10-30 μM) was “extremely sensitive to ATR inhibition via ceralasertib” and the “growth inhibition independent of PDE4D7 expression, P1” value ([1]; summary statement, WT vs P1) was “reduce tumor growth independent of PDE4D7 expression levels; also recorded: inhibit LNCaP cell growth irrespective of PDE4D7 expression status”. The “synergistic effects in combination with olaparib” value (mCRPC) was “enhance synergistic effects in combination with olaparib in mCRPC; also recorded: enhance synergistic effects in combination with olaparib in metastatic CRPC”.
In the case of `CC(=O)O[C@@]12CO[C@@H]1C[C@H](O)[C@@]1(C)C(=O)[C@H](O)C3=C(C)[C@@H](OC(=O)[C@H](O)[C@@H](NC(=O)OC(C)(C)C)c4ccccc4)C[C@@](O)([C@@H](OC(=O)c4ccccc4)[C@H]21)C3(C)C` [docetaxel, Docetaxel], the “growth of WT LNCaPs” value (LNCaP WT cells; docetaxel 10 μM) was “effective in WT”, the “growth of WT LNCaPs vs DMSO” value (LNCaP WT cells; docetaxel, all concentrations (5-25 μM), slope 0-48 h) was “significantly reduced growth” and the “growth of P1 cells” value ([1]; docetaxel 10 μM) was “no effect”. The “growth of PDE4D7-knockdown LNCaPs vs DMSO” value ([1]; docetaxel, all concentrations (5-25 μM) except 10 μM, slope 0-48 h) was “significantly reduced growth”, the “sensitivity to docetaxel after PDE4D7 re-introduction, vs P1” value (P1-PDE4D7+/+ LNCaP cells; docetaxel 10 μM) was “more sensitive to docetaxel treatment than P1” and the “PARP cleavage, WT LNCaP” value ([2]; docetaxel 10 nM) was “increased PARP cleavage”. The “cleaved PARP ratio, P1 LNCaP” value ([3]; docetaxel 10 nM) was “No increase in cleaved PARP ratio”.
For `COC(=O)Nc1nc2ccc(C(=O)c3ccccc3)cc2[nH]1` [mebendazole], the WT cell growth (LNCaP WT cells; mebendazole 1-10 μM) is given as “significant downregulation of cell growth in a dose-dependent manner”, the “effect on P1 cells” value ([1]; mebendazole 1-10 μM, compared with WT) is given as “far more substantial and more significant, with initiation of immediate cell death in the cells at both concentrations; also recorded: PDE4D7-knockdown confers sensitivity to mebendazole in comparison to WT LNCaPs” and the “potential in advanced PCa treatment” value (advanced PCa) is given as “showed potential in advanced PCa treatment in combination with docetaxel”.
In the case of `CC#C[C@]1(O)CC[C@H]2[C@@H]3CCC4=CC(=O)CCC4=C3[C@@H](c3ccc(N(C)C)cc3)C[C@@]21C` [mifepristone], the “growth of WT LNCaPs” value (LNCaP WT cells; mifepristone 30 μM) was “successfully inhibited growth”, the “WT cell proliferation vs DMSO” value (LNCaP WT cells; mifepristone 0.3-10 μM) was “neither WT or P1 cell proliferation were reduced compared to DMSO” and the “proliferation of P1 LNCaPs” value ([1]; mifepristone 30 μM) was “significantly enhanced proliferation”. For the same compound, the “growth curve over time, P1 LNCaPs” value ([1]; mifepristone 30 μM, compared to lower concentrations) was “initial growth was inhibited compared to lower concentrations, however this effect eventually wore off” and the “P1 cell proliferation vs DMSO” value ([1]; mifepristone 0.3-10 μM) was “neither WT or P1 cell proliferation were reduced compared to DMSO”.
With `O=C(c1cc(Cc2n[nH]c(=O)c3ccccc23)ccc1F)N1CCN(C(=O)C2CC2)CC1` [olaparib, Olaparib] the “LNCaP WT proliferation” value (LNCaP WT cells; olaparib 0-30 μM) was “decreased in a dose-dependent manner”, the “growth rate (slope analysis), WT” value (LNCaP WT cells; olaparib 3, 10 and 30 μM, slope 0-30 h) was “significant reductions in WT growth” and the “effect on PDE4D7-deficient LNCaP proliferation” value ([1]; olaparib 0-30 μM) was “minimal”. For the same compound, the “growth rate (slope analysis), P1” value ([1]; olaparib 0.3 and 1 μM, slope 0-30 h) was “unexpected reduction in slope”, the “resistance to olaparib, PDE4D7-reduced cells” value [1] was “resistant to olaparib; also recorded: resistance” and the “resistance to olaparib, PDE4D7-reduced cells” value ([1]; listed as Olaparib) was “resistance”. The “resistance to PARP inhibition via olaparib upon PDE4D7 knockdown” value ([1]; overall conclusion) was “resistant to PARP inhibition via olaparib; also recorded: confers resistance to PARP-inhibition via olaparib; also recorded: enhances resistance to olaparib”, the “sensitivity to olaparib after PDE4D7 re-introduction” value (P1-PDE4D7+/+ LNCaP cells; olaparib 10 μM) was “more sensitive to olaparib treatment; also recorded: re-sensitised” and the “sensitivity to olaparib after PDE4D7 re-introduction” value (P1-PDE4D7+/+ LNCaP cells; olaparib 10 μM, listed as Olaparib) was “enhances sensitivity to Olaparib”. For the same compound, the “growth vs olaparib-treated P1 and DMSO-treated P1-PDE4D7+/+ cells” value (P1-PDE4D7+/+ LNCaP cells; olaparib 10 μM, slope 0-48 h) was “statistically significant downregulation in growth”, the “PARP cleavage, WT LNCaP” value ([2]; olaparib 10 μM) was “increased PARP cleavage” and the “cleaved PARP ratio, P1 LNCaP” value ([3]; olaparib 10 μM) was “No increase in cleaved PARP ratio”. The “effect against LNCaP cells” value (LNCaP cells) was “effective against LNCaP cells”.
With `COc1ccc(C2CNC(=O)C2)cc1OC1CCCC1` (stereo not shown) [rolipram] the “FRET ratio / cAMP, membrane, WT” value [4] was “downregulation of FRET ratio in the membrane compartment of WT LNCaPs, indicating an increase in cAMP concentration”, the “FRET ratio, membrane, P1” value [5] was “no obvious difference in FRET ratio” and the “FRET ratio, cytosol, WT” value [6] was “no observable difference”. The “FRET ratio, cytosol, P1” value [7] was “no observable difference”.
